How the values were obtained:
[1] = Solubility Screening of CHG in vehicles, Vacuum Method
Protocol: Solubility Screening. Screening tests were conducted to determine the solubility of CHG in a wide variety of vehicles. Tests were conducted using the Vacuum Method and the Lyophilizing Method.
Vacuum Method. […] The flask was put in a 60° C. oil bath and stirred with a magnetic stir bar. […] In those cases, after nearly all the water was removed, additional vehicle was added to bring the final weight to 50 grams. The resulting concentration of CHG and residual water were determined. Also, the final state of the solution was qualitatively evaluated to determine if the mixture was transparent and apparently homogenous, or clearly inhomogeneous.

[2] = Solubility of lyophilized CHG in vehicles, Lyophilization Method; settings: for Apparent solubility 2 minutes / Apparent solubility 2 hours 50° C. / Apparent solubility >24 hours / Apparent solubility after cooling / Apparent solubility immediate: 0.2 wt. % lyophilized CHG; for Apparent solubility 2 minutes: after 2 minutes; for Apparent solubility 2 hours 50° C.: after 2 hours in 50° C. oven; for Apparent solubility >24 hours: after 24 hours; for Apparent solubility after cooling: after cooling to room temperature; for Apparent solubility immediate: observed immediately after mixing
Protocol: The Lyophilization Method. Lyophilized CHG was prepared by freeze-drying the aqueous CHG solution (20 wt. % solution in water, obtained from Xttrium Laboratories Inc., Chicago, Ill.).
For lower viscosity vehicles, a 5 ml sample of the non-aqueous vehicle of interest was measured into a glass vial. For higher viscosity vehicles that were difficult to transfer by volume, a 5 gm sample was weighed into the vial. Next, 0.01 g of lyophilized CHG was added to the vial. The sample was capped and mixed by shaking for 30 seconds. The sample was immediately observed and then observed again after 2 minutes and again after 24 hours. After 24 hours, the sample was placed in a 50° C. oven for 2 hours and then removed and immediately observed. These samples were allowed to cool to room temperature and a final observation was made.
CHG solutions. The solutions containing CHG were either a 20 wt. % aqueous solution of CHG or a 10-20% w/w solution of CHG in a non-aqueous vehicle. The non-aqueous solutions were prepared by freeze drying the aqueous CHG solution to produce lyophilized CHG. Finely divided, lyophilized CHG was then solubilized in a non-aqueous vehicle at room temperature with continuous stirring for eight hours.

Compound	Final State [1]	Apparent solubility 2 minutes [2]	Apparent solubility 2 hours 50° C. [2]	Apparent solubility >24 hours [2]	Apparent solubility after cooling [2]	Apparent solubility immediate [2]	solubility of CHG in vehicle (dissolution experiments using lyophilized CHG) [2]
Isolaureth-10	Inhomogeneous	no	soluble	partial	soluble	no	
CC(C)CCCCCCCCCCCCCCC(=O)OCC(COC(=O)CCCCCCCCCCCCCCC(C)C)(COC(=O)CCCCCCCCCCCCCCC(C)C)COC(=O)CCCCCCCCCCCCCCC(C)C [Pentaerythritol tetraisostearate]		partial	partial	partial	partial	partial	
sorbitan trioleate							limited
PPG-5 Ceteth-20	Inhomogeneous	no	soluble	partial	soluble	no	
Octyldodeceth-10		partial	partial	partial	partial	no	
CC(C)CCCCCCCCCCCCCCC(=O)OCC(O)CO (stereo not shown) [GMIS-2, glycerol monoisostearate]							good solvent for CHG
Oleth-2		no	partial	no	partial	no	
Polyglycerol-3 Diisostearate		no	soluble	soluble	partial	no	
